From patent US9073966B2, “Inhibition of sweat malodor” (Firmenich SA, priority 2005, dated 2015) come the findings set out here.

In this experiment the test system is production of (S)-3-methyl-3-sulfanylhexan-1-ol. Put plainly: Screening of potentially malodor-inhibiting compounds: micro-organisms incubated with the Cys-Gly precursor, VSC quantified by GC-AED (procedure of Example 6). Format: cell-based. The conditions noted are these: for inhibition of production of (S)-3-methyl-3-sulfanylhexan-1-ol: compounds added at 2 μmole. As for the experimental part: Bacteria isolates were grown aerobically in the appropriate liquid media at 37° C. until OD600=1.0. Cells were harvested by centrifugation at 3000 g, 10 min, washed once with sterile 0.1M phosphate buffer (pH 6.0) and resuspended in fresh buffer. The concentration of individual strains incubated with the sweat precursor was between 1.10^+8 and 1.10^+10 cfu/mL. These freshly prepared bacteria (5 mL), were incubated with 0.1 mL of precursors (5 mg in 10 mL water), (or the sweat fraction, in Example 1 above), at 37° C. pH 6 in a close bottle. After the incubation time 1, 4 and 18 hours, 1 mL of ethyl acetate containing octanethiol and octadecane at 0.02 mg/mL was added and the fermentation broth was centrifuged at 16′000 g. The organic phase was directly injected on a GCSPB1 column coupled to MS and on a GCDMePeBetacdx chiral column coupled to AED detection. These experiments were repeated three times, two blanks were done with the micro-organism without the precursor and one with the precursor in the growing buffer only. No formation of sulfur compound was detected in blanks. The response factor for 1 μL injected of a solution 0.01 mg/mL of octanethiol was calculated in comparison of 1 μL injected of a racemic solution of 0.01 mg/mL of 3-methyl-3-sulphanylhexane-1-ol. The addition of both peaks areas (R/S) gave 280 (+/−5) and octanethiol 303 (+/−3) peaks surface over for injections so we used as an approximation a response factor of 1. Correlation factor for 1 μL injected on both column, were above 0.998 in the range of 1 to 10 ppm of (R/S)-3-methyl-3-sulfanylhexane-1-ol.
Micro-organisms suspended in fresh buffer (Example 5, detailed fermentation protocol) were split in two samples X and Y (negative control) of 5 mL.
[drawing 12] (obtained in Example 9) was added to sample X at a concentration of 2 μmol/L.
The samples comprising suspended micro-organisms and the compound to be screened were incubated at 37° C. for 30 min. […]
After the incubation times of 1, 4 and 18 hours, the increase of malodorous substance (compound 1 in FIG. 2) is briefly determined by sniffing of a trained person. […]
For the internal standard, the response factor for 1 μL injected of a solution 0.01 mg/mL of octanethiol was calculated in comparison of 1 μL injected of a racemic solution of 0.01 mg/mL of 3-methyl-3-sulphanylhexane-1-ol. […]
Stoichiometrically, 0.2 μmol of precursor produces 0.025 mg of VSC in 1 ml ethylacetate, if all precursor is metabolized. If less than […] of VSC is measured in sample X by the AED system, the screened compound, β-Cl-ala-gly, has the ability to reduce the development of malodor. […]

As for `Nc1cccc(C(=O)NCC(=O)O)c1` [Compound VII, N-[3-amino-benzoyl]glycine], the “effect on formation of metabolites like compound II upon screening” value (compound (VII) with Z being NH) was “clear and confirmed increase of metabolites”. Also, the “production of (S)-3-methyl-3-sulfanylhexan-1-ol compared to the control” value (compound added at 2 μmole, procedure of Example 6) is “increased production”.

As to `C#CC[C@H](N)C(=O)NCC(=O)O` [Compound VI, N-[(2S)-2-amino-4-pentynoyl]glycine], the “inhibition of production of (S)-3-methyl-3-sulfanylhexan-1-ol” value (procedure of Example 6) stood at 75%.

As to `N[C@@H]1C=C(C(=O)NCC(=O)O)SC1` [IIIa, N-{[(4R)-4-amino-4,5-dihydro-2-thienyl]carbonyl}glycine], the “inhibition of production of (S)-3-methyl-3-sulfanylhexan-1-ol” value (procedure of Example 6) was determined as 25%.
